In article PMC5381194, “On-chip in vitro cell-network pre-clinical cardiac toxicity using spatiotemporal human cardiomyocyte measurement on a chip” (Scientific Reports, 2014):
Like-named read-outs stand apart in the source and are kept apart here.

What was measured:
hERG = hERG (Homo sapiens, UniProt Q12809); assay: hERG assay: K+ current by patch clamp in hERG expressing CHO-K1 cells; details: pH 7.4
Procedure: Supplementary Explanation of Methods [in online]
Measurement of potassium (K+) current by patch clamp in hERG expressing CHO-K1 cells A patch clamp glass electrode was filled with internal solution (KCl: 130 mM, MgCl2: 1 mM, EGTA: 5 mM, MgATP: 5 mM, HEPES: 10 mM, pH 7.20). The electrode was attached to a patch clamp headstage holder and the tip of the electrode was brought into contact with the cell membrane with a micromanipulator under the microscope. Slight negative pressure from suction was created inside the electrode and the patch clamp system AXOPATCH 200B (Axon Instruments) and Clampex 9.2 was used to obtain a measured membrane resistance value (R-memb) greater than 20 megohms. The resting membrane potential was set at -80 mV just to wait to obtain R-memb greater than 1 gigaohms. Then to make whole-cell clamp mode, a strong suction was applied to rupture the cell membrane under the electrode. Cell capacitance and series resistance were compensated. The stimulation protocol (holding potential: -80 mV, depolarization pulse: +50 mV, for 2 s, repolarization pulse: -40 mV, for 2 s, pulse frequency:
0.067 Hz) was applied and the corresponding current was recorded. After the current waveform became stable, the application solutions were added cumulatively from the lowest concentration.
The cells were exposed to each concentration for 5 minutes and washed with Tyrode solution […]
pH 7.40) to observe the recovery after the exposure to the highest concentration. All experiments (n=3) were carried out at room temperature. The cells were perfused with Tyrode solution at the rate of 2.5 ml/min through the experiment as the background flow. The test compound was added to the cells directly via a pipette set nearby the cells at the rate of 350-400 µl/min.
Percentage change from pre-application values in tail peak current (% inhibition) was calculated […]
application/average of the consecutive 4 currents just before the start of the first application (the lowest one)] × 100. The dose levels were selected to describe the dose response curve. The maximum concentration was set to at least approximately 30~100 times its effective therapeutic plasma concentration in consideration of the solubility. […]

[1] = test system: human embryonic stem cell-derived cardiomyocyte cluster (hES-CMC); details: for Arrest (%) / Fib-like (%): human, 10 min
[2] = set-up: method as in references and pharmaceutical attachments; details: clinical report; effective therapeutic plasma concentration; ref references and pharmaceutical attachments; cited from earlier work
[3] = clinical VT/TdP risk compiled from the literature; ref literature; cited from earlier work
[4] = test system: human embryonic stem cell-derived cardiomyocyte cluster (hES-CMC); assay: On-chip MEA field potential recording of hCM clusters (temporal FPD and STVFPD); details: for Score (On-chip MEA system, VT/TdP risk): more than 1.9-fold of STVFPD is the border of high risk of VT/TdP; for FPD (ratio) / STVFPD (ratio): 10 μM (Ref. dose ca. 10^2 × CMAX), ratio against the control, mean ± S.E.
[5] = test system: guinea pig right ventricular papillary muscle; assay: APD assay: action potential recording in guinea pig right ventricular papillary muscle; details: relative ratio against the control, mean
Procedure: After the current waveform
(n=3) were carried out at room temperature. The cells were perfused with Tyrode solution at the […]
lowest one)] × 100. […] The […]
plasma concentration in consideration of the solubility. […]
(§1) megohms, which was coupled to an Ag-AgCl bath electrode and connected to a microelectrode […]
(§2) amplifier (MEZ-8300, Nihon Koden). […]
(§3) computer system (WinCAPA1.6.6.Aui, Physio-Tech). The components of the action potential analyzed by the computer system are: resting membrane potential (RMP), action potential amplitude (APA), overshoot (OS), action potential duration at 30%, 50% and 90% of repolarization (APD30, APD50 and APD90, respectively) and maximum rate of rising phase (V max = dV/dt max). After an equilibration period for at least one hour, the test compound was added to the organ bath at increasing cumulative concentrations. The administration volume and rate was 20, 40, 140 µl/20 ml organ bath and 1 s/dose. Cardiac action potentials were recorded before and 30 minutes after the exposure of the test compound at each concentration.
(§4) Monophasic action potential duration (MAPD) measurements in isolated Langendorff-perfused female rabbit heart
(§5) Female NZW rabbit were anesthetized by an intravenous injection of thiopental (30 mg/kg) and heparin (500 U/kg). Then the heart was quickly removed and its aorta was cannulated, the bundle of His was sectioned, for perfusion of the coronary artery according to the Langendorff method with constant pressure (initial perfusion pressure: 60-70 mmHg). The heart was perfused at […]
KCl: 4.7 mM, CaCl2: 2.5 mM, MgSO4: 1.2 mM, KH2PO4: 1.2 mM, NaHCO3: 25 mM, glucose:
Two electrocardiogram (ECG) […]
electrodes were held lightly against the epicardium, the positive one on the left ventricle, the […]

[6] = test system: isolated Langendorff-perfused female rabbit heart; assay: MAPD measurement in isolated Langendorff-perfused female rabbit heart; details: relative ratio against the control, mean
From the text: as §1, §2, §3
The dose levels were selected to describe the dose response curve.
as §4, §5

[7] = hCM clusters, 10 μM, ratio of lethally abnormal events

Chain of hERG (Q12809 whole entry): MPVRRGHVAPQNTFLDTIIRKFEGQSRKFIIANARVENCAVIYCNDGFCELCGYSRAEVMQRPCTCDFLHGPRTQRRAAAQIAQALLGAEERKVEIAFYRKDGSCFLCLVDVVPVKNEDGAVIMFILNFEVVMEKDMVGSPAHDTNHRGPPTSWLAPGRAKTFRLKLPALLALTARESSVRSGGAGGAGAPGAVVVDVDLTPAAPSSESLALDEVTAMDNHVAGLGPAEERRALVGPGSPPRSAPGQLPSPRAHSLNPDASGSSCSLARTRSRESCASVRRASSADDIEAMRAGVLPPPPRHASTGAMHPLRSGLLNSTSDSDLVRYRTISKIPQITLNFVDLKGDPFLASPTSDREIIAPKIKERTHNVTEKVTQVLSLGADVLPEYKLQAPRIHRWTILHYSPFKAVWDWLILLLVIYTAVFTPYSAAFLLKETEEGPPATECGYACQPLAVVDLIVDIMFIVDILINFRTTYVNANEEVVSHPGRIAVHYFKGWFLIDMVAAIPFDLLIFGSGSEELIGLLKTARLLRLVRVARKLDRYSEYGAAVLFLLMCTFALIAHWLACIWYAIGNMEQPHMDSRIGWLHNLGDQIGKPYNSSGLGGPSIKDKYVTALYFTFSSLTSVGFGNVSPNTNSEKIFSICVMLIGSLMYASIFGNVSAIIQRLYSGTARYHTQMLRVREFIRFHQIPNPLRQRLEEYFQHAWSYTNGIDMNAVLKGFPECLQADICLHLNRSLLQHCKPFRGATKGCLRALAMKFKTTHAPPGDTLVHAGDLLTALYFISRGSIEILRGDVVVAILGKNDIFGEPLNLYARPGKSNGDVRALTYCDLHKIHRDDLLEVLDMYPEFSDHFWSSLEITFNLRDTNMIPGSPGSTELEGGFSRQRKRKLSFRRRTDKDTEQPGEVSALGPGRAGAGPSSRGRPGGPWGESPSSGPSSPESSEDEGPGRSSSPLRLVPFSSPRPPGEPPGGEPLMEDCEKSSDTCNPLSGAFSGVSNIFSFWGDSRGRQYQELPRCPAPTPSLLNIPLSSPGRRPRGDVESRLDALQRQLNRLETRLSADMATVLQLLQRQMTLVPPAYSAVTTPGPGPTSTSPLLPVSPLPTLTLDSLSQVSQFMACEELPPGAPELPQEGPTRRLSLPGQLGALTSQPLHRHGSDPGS

Compound	Cmax [2]	VT/VF/TdP (Clinical report) [3]	Score (On-chip MEA system, VT/TdP risk) [4]	Arrest (%) ([1]; 10 µM)	Fib-like (%) ([1]; 10 µM)	also measured
CC(C)NCC(O)c1ccc(NS(C)(=O)=O)cc1 (racemic) [DL-sotalol]	2500 nM					inhibition at 5 min, 30 µM (hERG; CHO-K1 cells expressing hERG): 19.2%; Score (On-chip MEA system, VT/TdP risk) [1]: High; Arrest (%) ([1]; 1000 µM): 5%; Fib-like (%) ([1]; 1000 µM): 0%
COc1ccc(CCN2CCC(Nc3nc4ccccc4n3Cc3ccc(F)cc3)CC2)cc1 [Astemizole]	2 nM	(+)	High			Arrest (%) ([1]; 0.1 µM): 0%; Fib-like (%) ([1]; 0.1 µM): 14%
CC(C)COCC(CN(Cc1ccccc1)c1ccccc1)N1CCCC1 (centres unmarked) [Bepridil]	300 nM	(+)	High	5%	5%	inhibition at 5 min, 0.3 µM (hERG; CHO-K1 cells expressing hERG): 61.9%; APD90 prolongation in papillary musole (ratio) ([5]; 10 μM): 1.02 ratio; MAPD90 prolongation in Langendorff hearts (ratio) ([6]; 10 μM): 1.12 ratio; FPD (ratio) ([4]; hCM clusters): 1.21 ± 0.12 ratio; STVFPD (ratio) ([4]; hCM clusters): 4.74 ± 2.26 ratio
COc1cc(N)c(Cl)cc1C(=O)NC1CCN(CCCOc2ccc(F)cc2)CC1OC (centres unmarked) [Cisapride]	180 nM	(+)	High	0%	4%	inhibition at 5 min, 1 µM (hERG; CHO-K1 cells expressing hERG): 90.6%; APD90 prolongation in papillary musole (ratio) ([5]; 1 μM): 1.14 ratio; MAPD90 prolongation in Langendorff hearts (ratio) ([6]; 1 μM): 1.37 ratio; FPD (ratio) ([4]; hCM clusters): 1.37 ± 0.07 ratio; STVFPD (ratio) ([4]; hCM clusters): 3.82 ± 0.85 ratio
CN(C)CCCC1(c2ccc(F)cc2)OCc2cc(C#N)ccc21 (centres unmarked) [Citalopram]	270 nM	(+)	High	12%	0%	inhibition at 10 µM (hERG): 83.5%; APD90 prolongation in papillary musole (ratio) ([5]; 10 μM): 0.95 ratio; FPD (ratio) ([4]; hCM clusters): 0.86 ± 0.04 ratio; STVFPD (ratio) ([4]; hCM clusters): 2.75 ± 0.78 ratio
COc1ccc([C@@H]2Sc3ccccc3N(CCN(C)C)C(=O)[C@@H]2OC(C)=O)cc1 [Diltiazem]	110 nM		Low			Arrest (%) ([1]; 1 µM): 50%; Fib-like (%) ([1]; 1 µM): 0%
CC(C)(C)c1ccc(C(=O)CCCN2CCC(OC(c3ccccc3)c3ccccc3)CC2)cc1 [Ebastine]	160 nM		Low			Arrest (%) ([1]; 1 µM): 0%; Fib-like (%) ([1]; 1 µM): 0%
NC(N)=Nc1nc(CSCCC(N)=NS(N)(=O)=O)cs1 [Famotidine]	190 nM		Low	0%	0%	
O=C(NCC1CCCCN1)c1cc(OCC(F)(F)F)ccc1OCC(F)(F)F (centres unmarked) [Flecainide]	430 nM		High			inhibition at 5 min, 10 µM (hERG; CHO-K1 cells expressing hERG): 88.3%; Arrest (%) ([1]; 100 µM): 13%; Fib-like (%) ([1]; 100 µM): 0%
C[C@H]1COc2c(N3CCN(C)CC3)c(F)cc3c(=O)c(C(=O)O)cn1c23 [Levofloxacin]	22000 nM		Low			inhibition at 5 min, 300 µM (hERG; CHO-K1 cells expressing hERG): 13.2%; Arrest (%) ([1]; 1000 µM): 40%; Fib-like (%) ([1]; 1000 µM): 4%
COc1c(N2C[C@@H]3CCCN[C@@H]3C2)c(F)cc2c(=O)c(C(=O)O)cn(C3CC3)c12 [Moxifloxacin]	10000 nM					Arrest (%) ([1]; 100 µM): 0%; Fib-like (%) ([1]; 100 µM): 0%
Fc1ccc([C@@H]2CCNC[C@H]2COc2ccc3c(c2)OCO3)cc1 [Paroxetin]	70 nM		High			FPD (ratio) ([4]; hCM clusters): 1.30 ± 0.06 ratio; STVFPD (ratio) ([4]; hCM clusters): 2.27 ± 0.41 ratio; Arrest (%) [4, 7]: 13%; Fib-like (%) [4, 7]: 0%
CC(C)(C)c1ccc(C(O)CCCN2CCC(C(O)(c3ccccc3)c3ccccc3)CC2)cc1 (centres unmarked) [Terfenadine]	220 nM	(+)	High	21%	3%	STVFPD in hCM clusters, long-term observation ([4]; 0.3 μM, even at 72 h): no significant increase; time at which FPD reached the risk level ([4]; 0.3 μM, hCM clusters, long-term observation): 24 h; FPD in hCM clusters, long-term observation ([4]; 0.3 μM, observed 8 h after application): gradual increase
CSc1ccc2c(c1)N(CCC1CCCCN1C)c1ccccc1S2 (centres unmarked) [Thioridazine]	1800 nM	(+)	High	0%	0%	
